We go through 13 molecules from patent US8470820B2, “Nitrogen-containing heteroaryl derivatives” (Hoffman-La Roche Inc., priority 2010, dated 2013).

For this assay, the target named is human PDE10A (Homo sapiens (Human), UniProt Q9Y233). As to the kind of experiment: human PDE10A full length Scintillation Proximity Assay (SPA). It counts as biochemical. The note with it: 50 nM cGMP and 50 nM [3H]-cGMP, 20 minutes at room temperature, read-out: PDE10A inhibition IC50. The method, then: The following test was carried out in order to determine the activity of the compounds of the present invention. PDE10 activity of the compounds of the present invention was determined using a Scintillation Proximity Assay (SPA)-based method similar to the one previously described (Fawcett, L. et al., Proc Natl Acad Sci USA (2000) 97(7):3702-3707).
The human PDE10A full length assay was performed in 96-well micro titer plates. The reaction mixture of 50 μl contained 20 mM HEPES pH=7.5/10 mM MgCl2/0.05 mg/ml BSA (Sigma cat. # A-7906), 50 nM cGMP (Sigma, cat. # G6129) and 50 nM [^3H]-cGMP (GE Healthcare, cat. # TRK392 S.A. 13.2Ci/mmol), 3.75 ng/well PDE10A enzyme (Enzo Life Science, Lausen, Switzerland cat # SE-534) with or without a specific test compound. A range of concentrations of the potential inhibitor was used to generate data for calculating the concentration of inhibitor resulting in 50% of the effect (e.g. IC50, the concentration of the competitor inhibiting PDE10A activity by 50%). Non-specific activity was tested without the enzyme. The reaction was initiated by the addition of the substrate solution (cGMP and [^3H]-cGMP) and allowed to progress for 20 minutes at room temperature. The reaction was terminated by adding 25 μA of YSi-SPA scintillation beads (GE Healthcare, cat. # RPNQ0150) in 18 mM zinc sulphate solution (stop reagent). After 1 h under shaking, the plate was centrifuged one minute at 170 g to allow beads to settle. Afterwards, radioactive counts were measured on a Perkin Elmer TopCount Scintillation plate reader.
Background: SPA uses beads or plates that emit light when radiolabelled molecules are held near them.

human PDE10A, sequence (Q9Y233 other isoform, or with tags, fused parts or gaps): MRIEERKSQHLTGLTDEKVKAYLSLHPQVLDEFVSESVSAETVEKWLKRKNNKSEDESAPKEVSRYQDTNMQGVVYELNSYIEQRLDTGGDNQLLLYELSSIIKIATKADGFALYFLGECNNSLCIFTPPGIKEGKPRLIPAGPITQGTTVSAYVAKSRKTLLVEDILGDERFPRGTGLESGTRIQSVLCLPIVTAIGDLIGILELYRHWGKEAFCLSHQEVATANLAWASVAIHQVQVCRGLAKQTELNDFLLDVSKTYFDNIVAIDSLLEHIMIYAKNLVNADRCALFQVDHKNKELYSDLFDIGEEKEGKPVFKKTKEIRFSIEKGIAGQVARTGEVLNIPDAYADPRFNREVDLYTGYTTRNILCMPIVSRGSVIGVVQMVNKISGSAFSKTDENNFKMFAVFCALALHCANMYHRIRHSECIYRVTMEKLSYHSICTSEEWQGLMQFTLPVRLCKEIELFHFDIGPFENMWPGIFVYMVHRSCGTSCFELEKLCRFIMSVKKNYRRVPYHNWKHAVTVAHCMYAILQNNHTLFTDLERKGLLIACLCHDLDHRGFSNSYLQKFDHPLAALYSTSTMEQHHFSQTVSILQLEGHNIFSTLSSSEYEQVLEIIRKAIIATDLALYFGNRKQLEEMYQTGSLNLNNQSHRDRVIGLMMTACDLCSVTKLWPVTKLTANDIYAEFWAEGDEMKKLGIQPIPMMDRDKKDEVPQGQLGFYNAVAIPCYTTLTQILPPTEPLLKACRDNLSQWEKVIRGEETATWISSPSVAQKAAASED

The IC50 is the concentration that inhibits the measured activity by half. On to `COc1ccc(-c2nnc(NC(=O)c3nc(C4CC4)ccc3Nc3cncnc3)s2)cc1` [Example 44, 6-Cyclopropyl-3-(pyrimidin-5-ylamino)-pyridine-2-carboxylic acid [5-(4-methoxy-phenyl)-[1,3,4]thiadiazol-2-yl]-amide], for which the IC50 came out at 1880 nM.
Under `O=C(Nc1nnc(-c2ccc(F)cc2)s1)c1nc(C2CC2)ccc1Nc1cncnc1` [Example 45, 6-Cyclopropyl-3-(pyrimidin-5-ylamino)-pyridine-2-carboxylic acid [5-(4-fluoro-phenyl)-[1,3,4]thiadiazol-2-yl]-amide] stands 6380 nM; under `O=C(Nc1cc(-c2ccccc2)no1)c1nc(C2CC2)ccc1Nc1cncnc1` [Example 46, 6-Cyclopropyl-3-(pyrimidin-5-ylamino)-pyridine-2-carboxylic acid (3-phenyl-isoxazol-5-yl)-amide], 612 nM; under `O=C(Nc1cc(-c2ccccc2)on1)c1nc(C2CC2)ccc1Nc1cncnc1` [Example 47, 6-Cyclopropyl-3-(pyrimidin-5-ylamino)-pyridine-2-carboxylic acid (5-phenyl-isoxazol-3-yl)-amide], 1450 nM.
Under `O=C(Nc1nnc(-c2ccccc2)s1)c1nc(C2CC2)ccc1Nc1cncnc1` [Example 48, 6-Cyclopropyl-3-(pyrimidin-5-ylamino)-pyridine-2-carboxylic acid (5-phenyl-[1,3,4]thiadiazol-2-yl)-amide] stands 435 nM; under `O=C(Nc1nnc(-c2cnccn2)s1)c1nc(C2CC2)ccc1Nc1cncnc1` [Example 49, 6-Cyclopropyl-3-(pyrimidin-5-ylamino)-pyridine-2-carboxylic acid (5-pyrazin-2-yl-[1,3,4]thiadiazol-2-yl)-amide], 744 nM; under `O=C(Nc1ccc(-c2ccccn2)s1)c1nc(C2CC2)ccc1Nc1cncnc1` [Example 50, 6-Cyclopropyl-3-(pyrimidin-5-ylamino)-pyridine-2-carboxylic acid (5-pyridin-2-yl-thiophen-2-yl)-amide], 1 nM.
The result for `O=C(Nc1cc(-c2ccccn2)no1)c1nc(C2CC2)ccc1Nc1cncnc1` [Example 51, 6-Cyclopropyl-3-(pyrimidin-5-ylamino)-pyridine-2-carboxylic acid (3-pyridin-2-yl-isoxazol-5-yl)-amide] reads 4 nM.
In the case of `O=C(Nc1cn(-c2ccccn2)cn1)c1nc(C2CC2)ccc1Nc1cncnc1` [Example 52, 6-Cyclopropyl-3-(pyrimidin-5-ylamino)-pyridine-2-carboxylic acid (1-pyridin-2-yl-1H-imidazol-4-yl)-amide], the IC50 was 33 nM.
The result for `CC(C)c1ncc(Nc2cncnc2)c(C(=O)Nc2cc(-c3ccccn3)nn2C)n1` [Example 53, 2-Isopropyl-5-(pyrimidin-5-ylamino)-pyrimidine-4-carboxylic acid (2-methyl-5-pyridin-2-yl-2H-pyrazol-3-yl)-amide] reads 20 nM; that for `Cn1nc(-c2ccccn2)cc1NC(=O)c1nc(C2CC2)ncc1Nc1cncnc1` [Example 54, 2-Cyclopropyl-5-(pyrimidin-5-ylamino)-pyrimidine-4-carboxylic acid (2-methyl-5-pyridin-2-yl-2H-pyrazol-3-yl)-amide], 87 nM; that for `Cn1nc(-c2ccccn2)cc1NC(=O)c1nc(C(C)(C)C)ncc1Nc1cncnc1` [Example 55, 2-tert-Butyl-5-(pyrimidin-5-ylamino)-pyrimidine-4-carboxylic acid (2-methyl-5-pyridin-2-yl-2H-pyrazol-3-yl)-amide], 4 nM.
With `O=C(Nc1cc(-c2ccc(Cl)cc2)no1)c1nc(C2CC2)ccc1Nc1cncnc1` [Example 56, 6-Cyclopropyl-3-(pyrimidin-5-ylamino)-pyridine-2-carboxylic acid [3-(4-chloro-phenyl)-isoxazol-5-yl]-amide], the IC50 amounted to 1450 nM.
